Experimental findings from patent US10160762B2, “6-alkyl dihydropyrazolopyrimidinone compounds as PDE2 inhibitors” (Merck Sharp & Dohme Corp., priority 2015, dated 2018) are described below.

A word on the Ki: it is the dissociation constant of the complex between target and ligand, obtained from inhibition or displacement.

The structures appear in SMILES notation.

The target in the assay is T1, human PDE2A1 (Homo sapiens, UniProt O00408).
T1 construct: GST; purchased BPS Bioscience (San Diego, Calif.) 60020; host or cells: insect cells
As to the kind of experiment: IMAP FP PDE assay, human PDE2A1. In kind it is biochemical. Particulars: Lab B; read-out: Human PDE2 Ki (nM) Lab B. In short, it runs like this:
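FP (IMAP) read after 60 min room-temperature reaction of insect-cell GST-human PDE2A1 with 50 nM FAM-cAMP plus 1000 nM cGMP (pH 7.2 Tris, Mg2+, DTT). Compounds titrated 3-fold over ten points. Apparent Ki derived assuming KM of 10,000 nM; enzyme at 20% substrate turnover.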

T1 sequence (O00408 1-920 isoform O00408-2): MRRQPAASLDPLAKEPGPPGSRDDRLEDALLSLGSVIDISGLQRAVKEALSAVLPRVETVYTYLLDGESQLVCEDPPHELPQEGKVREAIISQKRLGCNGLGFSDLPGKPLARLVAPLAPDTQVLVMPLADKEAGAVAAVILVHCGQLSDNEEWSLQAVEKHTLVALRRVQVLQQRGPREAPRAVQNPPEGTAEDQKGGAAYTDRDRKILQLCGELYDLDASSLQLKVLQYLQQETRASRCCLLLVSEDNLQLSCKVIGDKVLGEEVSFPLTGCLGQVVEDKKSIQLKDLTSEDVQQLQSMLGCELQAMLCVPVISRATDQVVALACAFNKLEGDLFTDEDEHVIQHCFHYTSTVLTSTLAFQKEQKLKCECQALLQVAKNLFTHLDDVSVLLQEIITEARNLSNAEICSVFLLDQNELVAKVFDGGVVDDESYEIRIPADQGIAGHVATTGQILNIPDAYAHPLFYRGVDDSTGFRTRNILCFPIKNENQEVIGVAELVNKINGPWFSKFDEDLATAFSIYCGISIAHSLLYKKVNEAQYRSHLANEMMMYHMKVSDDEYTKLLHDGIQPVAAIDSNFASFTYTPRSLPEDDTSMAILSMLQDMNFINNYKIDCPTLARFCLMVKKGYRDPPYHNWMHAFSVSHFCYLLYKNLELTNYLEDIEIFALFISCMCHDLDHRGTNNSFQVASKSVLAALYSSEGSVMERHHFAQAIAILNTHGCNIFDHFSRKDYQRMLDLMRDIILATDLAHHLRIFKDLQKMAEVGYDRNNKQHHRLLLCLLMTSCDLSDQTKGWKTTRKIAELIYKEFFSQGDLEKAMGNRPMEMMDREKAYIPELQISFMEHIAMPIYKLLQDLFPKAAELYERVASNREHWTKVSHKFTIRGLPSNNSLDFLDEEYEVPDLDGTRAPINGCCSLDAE

As to `COc1ccc(Cc2nc3c(c(CF)nn3C(C)c3ccc(C(F)(F)F)cc3)c(=O)[nH]2)cc1` (single isomer, unassigned) [Example 219, (S)- or (R)-3-(Fluoromethyl)-6-(4-methoxybenzyl)-1-(1-(4-(trifluoromethyl)phenyl)ethyl)-1H-pyrazolo[3,4-d]pyrimidin-4(5H)-one], the Ki amounted to 0.96 nM.

On to `CC(c1ccc(C(F)(F)F)cc1)n1nc(CO)c2c(=O)[nH]c(C(F)F)nc21` (stereo not shown) [Example 284, 6-(Difluoromethyl)-3-(hydroxymethyl)-1-(1-(4-(trifluoromethyl)phenyl)ethyl)-1H-pyrazolo[3,4-d]pyrimidin-4(5H)-one], for which the Ki worked out at 64 nM.

For the molecule `Cc1nc2c(c(CC(F)(F)F)nn2C(c2ccc(C(F)(F)F)cc2)C2(C)CC2)c(=O)[nH]1` (single isomer, unassigned) [Example 59, (S)- or (R)-6-Methyl-1-((1-methylcyclopropyl)(4-(trifluoromethyl)phenyl)methyl)-3-(2,2,2-trifluoroethyl)-1H-pyrazolo[3,4-d]pyrimidin-4(5H)-one], the Ki amounted to 23 nM.

Regarding `COCc1nn(C(C)c2ccc(C(F)(F)F)cc2)c2nc(C)[nH]c(=O)c12` (single isomer, unassigned) [Example 279], the inhibitory constant (Ki) is 17 nM.

As for `Cc1nc2c(c(CO)nn2C(c2ccc(C(C)(C)C)cc2)C2CC2)c(=O)[nH]1` (single isomer, unassigned) [Example 89, (S)- or (R)-1-((4-tert-Butylphenyl)(cyclopropyl)methyl)-3-(hydroxymethyl)-6-methyl-1H-pyrazolo[3,4-d]pyrimidin-4(5H)-one], the Ki worked out at 0.33 nM.

As for `Cc1nc2c(c(CO)nn2C(C)c2ccc(C(F)(F)F)cc2Cl)c(=O)[nH]1` (single isomer, unassigned) [Example 19, (S)- or (R)-1-(1-(2-Chloro-4-(trifluoromethyl)phenyl)ethyl)-3-(hydroxymethyl)-6-methyl-1H-pyrazolo[3,4-d]pyrimidin-4(5H)-one], the Ki stood at 1.8 nM.

Consider `Cc1nc2c(c(CO)nn2C(c2ccc(C(F)(F)F)cc2)C(C)(C)C)c(=O)[nH]1` (single isomer, unassigned) [Example 83, (S)- or (R)-1-(2,2-Dimethyl-1-(4-(trifluoromethyl)phenyl)-propyl)-3-(hydroxymethyl)-6-methyl-1H-pyrazolo[3,4-d]pyrimidin-4(5H)-one], for which the Ki came to 7.6 nM.
